In brackets after ≈: the same amount, converted by molar mass.
Tested on: Helicobacter pylori
Assay: Antimicrobial activity against Helicobacter pylori DSMZ 4867
Assay type: functional

Structure (SMILES) | MIC
CC(C)=CCC/C(C)=C/COc1ccc(/C=C/C(=O)O)cc1 | > 200 µg/mL
COc1cc(C(=O)O)ccc1OCC=C(C)C | 50 µg/mL (≈ 212 µM)
COc1cc(C(=O)O)ccc1OC/C=C(\C)CCC=C(C)C | > 200 µg/mL
COc1cc(/C=C/C(=O)O)ccc1OC/C=C(\C)CCC=C(C)C | > 200 µg/mL
CC1(C)S[C@@H]2[C@H](NC(=O)[C@H](N)c3ccc(O)cc3)C(=O)N2[C@H]1C(=O)O [AMOXICILLIN] | 0.781 µg/mL (≈ 2.14 µM)
CC(C)=CCC/C(C)=C/COc1ccc2ccc(=O)oc2c1 [AURAPTENE] | 50 µg/mL (≈ 168 µM)
COc1cc(/C=C/C(=O)O)ccc1OCC=C(C)C [BOROPINIC ACID] | 1.62 µg/mL (≈ 6.18 µM)
CC[C@H]1OC(=O)[C@H](C)[C@@H](O[C@H]2C[C@@](C)(OC)[C@@H](O)[C@H](C)O2)[C@H](C)[C@@H](O[C@@H]2O[C@H](C)C[C@H](N(C)C)[C@H]2O)[C@](C)(OC)C[C@@H](C)C(=O)[C@H](C)[C@@H](O)[C@]1(C)O [CLARITHROMYCIN] | 1.25 µg/mL (≈ 1.67 µM)
Cc1ncc([N+](=O)[O-])n1CCO [METRONIDAZOLE] | > 200 µg/mL
CN(C)[C@@H]1C(O)=C(C(N)=O)C(=O)[C@@]2(O)C(O)=C3C(=O)c4c(O)cccc4[C@@](C)(O)[C@H]3C[C@@H]12 [TETRACYCLINE] | 4 µg/mL (≈ 9 µM)
CC(C)=CCOc1ccc(C(=O)O)cc1 [VALENCIC ACID] | 100 µg/mL (≈ 485 µM)

— ChEMBL document CHEMBL1139707, “In vitro inhibitory activity of boropinic acid against Helicobacter pylori” (2006)
